What all share (assay): NCI-60 cell line screen, 48 h
The test system of assay [1] is DLD-1 colon.
In assay [2] the test system is DMS 114 small cell lung.
For assay [3], the system named is DMS 273 small cell lung.
In assay [4] the test system is M19-MEL melanoma.
Assay [5] has as its system XF 498 CNS.
Assay [6] concerns BT-549 breast.
Assay [7] relates to HS 578T breast.
Assay [8] has as its system MCF7 breast.
Assay [9] deals with MDA-MB-435.
Assay [10] has as its system NCI/ADR-RES ovarian.
The subject of assay [11] is PC-3 prostate.
The subject of assay [12] is LXFL 529 NSCLC.
Assay [13] relates to SNB-78 CNS.

For twelve molecules, TGI and GI50 results are on record in PubChem BioAssay (NCI).

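The compound was tested at five concentrations on cells cultured in 96-well plates, with a 48-hour exposure period. Here, GI50 denotes the concentration required for 50% inhibition of growth. TGI denotes the concentration required for complete inhibition of growth.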

In the case of `CN1c2ccccc2N(C)C23N(C)c4ccccc4N(C)C12N(C)c1ccccc1N3C` (stereo not drawn), the TGI in assay [1], in assay [2], in assay [3], in [4] and in [5] was > 100 µM in each case.

Turning to `CC1(C)[C@@H](OC(N)=O)[C@H]2O[C@H]2[C@]2(CO)[C@H]3CC[C@]4(C)[C@@H](c5ccc(=O)oc5)[C@@H](Cl)C[C@]4(O)C3=CC[C@@H]12`, the GI50 is 0.00695 µM in assay [6]; 0.00524 µM in [7]; 0.00745 µM in assay [8]; 0.0101 µM in [9]; 0.00672 µM in assay [10]; 0.00803 µM in [11]. The TGI in [6] was determined as 0.0257 µM; in assay [7] it was 0.0207 µM; in assay [8] it was 0.0512 µM; in assay [9] it was 0.0386 µM; in assay [10] it was 0.0174 µM; in assay [11], 0.0275 µM.

As to `CC#CC(=O)SCCNC(=O)CC`, the TGI in assay [6], in assay [7], in [8], in assay [9], in assay [10] and in assay [11] was > 10 µM each time.

On to `COc1cc(C2C(Cl)C(=O)N2NC(=O)c2ccc(N)cc2)ccc1O` (stereo not drawn), for which the TGI was > 100 µM in [1]; > 100 µM in assay [3]; 30.8 µM in assay [12]; > 100 µM in assay [4]; > 100 µM in assay [13]; 83.6 µM in assay [5].

Take `C[CH2][Sn]([CH2]C)([O]C(=O)C(OC(C)=O)c1ccccc1)[O]C(=O)C(OC(C)=O)c1ccccc1` (stereo not drawn): the GI50 in assay [6] was 16.1 µM; in [7], 40 µM; in assay [8] it was 14.6 µM; in [9], > 100 µM; in assay [10] it was > 100 µM; in assay [11] it was > 100 µM. In addition, the TGI in assay [6] was 29.7 µM; in assay [7], > 100 µM; in assay [8], 27.8 µM; in assay [9], > 100 µM; in assay [10], > 100 µM; in assay [11] it was > 100 µM.

For `O=[N+]([O-])c1cccc([As]=[As]c2cccc([N+](=O)[O-])c2)c1` (stereo not drawn), the GI50 in [6] was 0.0765 µM; in assay [7], 0.098 µM; in assay [8], 0.0327 µM; in [9] it was 0.122 µM; in [10], 0.182 µM; in assay [11], 0.147 µM. The TGI in assay [6] turned out to be 0.204 µM; in [7], 0.498 µM; in [8], 0.137 µM; in assay [9], 0.271 µM; in assay [10], 0.447 µM; in [11], 0.297 µM.

As for `O=C(Nc1ccc(Cl)cc1)Nc1ccc(Nc2nncc3ccccc23)cc1`, the GI50 in [6] was 2.15 µM; in [7], 3.83 µM; in assay [8], 1.43 µM; in assay [9] it was 2.14 µM; in assay [10], 2.79 µM; in [11], 2.32 µM. For the same molecule, the TGI in assay [6] was 9.28 µM; in assay [7] it was 27.7 µM; in assay [8], 8.33 µM; in assay [9], 9.42 µM; in [10], 26.3 µM; in [11] it was 11 µM.

For the molecule `COc1ccc(/C=C2\S/C(=N/Nc3nc(-c4ccccc4)cs3)NC2=O)cc1OC`, the TGI in [6] is 81.3 µM; in [7], 83.3 µM; in [8], > 100 µM; in assay [9], 75 µM; in assay [10], 49.8 µM; in assay [11] it was 52.6 µM.

For `CCCOC(=O)N1CCN(/[N+]([O-])=N/Oc2ccc([N+](=O)[O-])cc2[N+](=O)[O-])CC1`, the GI50 in assay [6] is 3.46 µM; in assay [7], 4.95 µM; in assay [8], 0.446 µM; in assay [9], 0.366 µM; in assay [10], 3.31 µM; in [11] it was 4.14 µM. Further, the TGI in assay [6] is 11.7 µM; in [7], 50.9 µM; in assay [8] it was 2.23 µM; in assay [9] it was 12.2 µM; in assay [10], > 100 µM; in [11], 15.1 µM.

In the case of `Clc1nc(Cl)c2ncn(C/C=C/COc3cccc(OC/C=C/Cn4cnc5c(Cl)nc(Cl)nc54)c3)c2n1`, the GI50 in [6] is 66.1 µM; in [7], 39.4 µM; in [8] it was 73.5 µM; in assay [9] it was > 100 µM; in assay [10] it was > 100 µM; in assay [11], 42 µM. Further, the TGI in assay [6], in assay [7], in assay [8], in [9], in [10] and in assay [11] was > 100 µM in each case.

Turning to `COc1ccc(OC)c2c1C(=O)C1CC1(Br)C2=O` (stereo not drawn), the TGI in [1], in assay [2], in assay [3], in assay [12], in assay [4] and in assay [5] was > 100 µM throughout.

With `Cc1c2c(nn1C)CSCc1cc(n(C)n1)CSc1cc(c3ccccc3c1)OCCCc1c(C(=O)O)n(C)c3c-2c(Cl)ccc13`, the GI50 in [6] was 2.52 µM; in [7], 4.48 µM; in [8], 0.575 µM; in [9], 2.45 µM; in [10] it was 14.2 µM; in [11] it was 3.42 µM. The TGI in [6] came to 11.2 µM; in [7], 32.7 µM; in assay [8], 11.3 µM; in assay [9], 14.3 µM; in assay [10], 30 µM; in [11], 13.2 µM.
